How the values were obtained:
[1] = Half-life period at pH 9.2 in the presence of five times more lysine; type: ADME
[2] = Half-life period at pH 8.1 in the presence of five times more cysteine; type: ADME
[3] = Half-life period at pH 9.2 in the presence of five times more cysteine; ND1 indicates reaction rate was too quick to determine; type: ADME
[4] = Half-life period at pH 7.2 in the presence of five times more cysteine; type: ADME
[5] = Half-life period at pH 7.2 in the presence of five times more lysine; ND2 indicates reaction rate was too slow to measure
[6] = Half-life period at pH 8.1 in the presence of five times more lysine; type: ADME

half-life [1]: 29.6 h
half-life [2]: 0.45 h
T1/2 [3]: Reaction rate too quick
half-life [4]: 1.28 h
T1/2 [5]: Reaction rate too slow
half-life [6]: 178 h
SMILES: C=CS(=O)(=O)NCc1ccc([N+](=O)[O-])cc1

From ChEMBL document CHEMBL1136513, “Evaluation of vinylsulfamides as sulfhydryl selective alkylation reagents in protein modification” (Bioorg Med Chem Lett, 2003)
